Experiment: Toxic hemolytic activity against RBC assessed as hemolytic index
Type: ADME, cell-based
Conditions: erythrocyte

Question: With `CC(=O)O[C@@H]1CO[C@@H](O[C@@H]2[C@@H](O)[C@H](O[C@@H]3[C@H](O)[C@@H](O[C@@H]4O[C@H](CO)[C@H](O)[C@H](O[C@@H]5O[C@H](CO)[C@@H](O)[C@H](O)[C@H]5O)[C@H]4O)[C@H](O[C@@H]4C[C@@H]5CC[C@H]6[C@@H]7[C@H](O)[C@@H]8O[C@]9(CC[C@@H](C)CO9)[C@@H](C)[C@@H]8[C@@]7(C)CC[C@@H]6[C@@]5(C)C[C@H]4O)O[C@@H]3CO)O[C@H](CO)[C@H]2O)[C@@H](O)[C@H]1O` as the compound, how does the Activity read?
Answer: Its Activity is 52000.

Question: With `CC(=O)OC[C@H]1O[C@@H](O[C@H]2[C@@H](O)[C@@H](CO)O[C@@H](O[C@H]3[C@H](O[C@@H]4C[C@@H]5CC[C@H]6[C@@H]7[C@H](O)[C@@H]8O[C@]9(CC[C@@H](C)CO9)[C@@H](C)[C@@H]8[C@@]7(C)CC[C@@H]6[C@@]5(C)C[C@H]4O)O[C@H](CO)[C@H](O[C@@H]4O[C@H](CO)[C@@H](O)[C@H](O[C@@H]5OC[C@@H](OC(C)=O)[C@H](O)[C@@H]5O)[C@H]4O)[C@@H]3O)[C@@H]2O)[C@H](O)[C@@H](O)[C@@H]1O` as the compound, how does the Activity read?
Answer: The Activity was 43000.

Question: With `CC(=O)OC[C@H]1O[C@@H](O[C@H]2[C@@H](O)[C@@H](CO)O[C@@H](O[C@H]3[C@H](O[C@@H]4C[C@@H]5CC[C@H]6[C@@H]7[C@H](O)[C@@H]8O[C@]9(CC[C@@H](C)CO9)[C@@H](C)[C@@H]8[C@@]7(C)CC[C@@H]6[C@@]5(C)C[C@H]4O)O[C@H](CO)[C@H](O[C@@H]4O[C@H](CO)[C@@H](O)[C@H](O[C@@H]5OC[C@@H](O)[C@H](O)[C@@H]5O)[C@H]4O)[C@@H]3O)[C@@H]2O)[C@H](O)[C@@H](O)[C@@H]1O` as the compound, how does the Activity read?
Answer: The Activity was 40000.

Question: With `C[C@@H]1CC[C@@]2(OC1)O[C@H]1[C@@H](O)[C@H]3[C@@H]4CC[C@H]5C[C@@H](O[C@@H]6O[C@H](CO)[C@H](O[C@@H]7O[C@H](CO)C(O)[C@H](O[C@@H]8OC[C@@H](O)[C@H](O)[C@H]8O)[C@H]7O[C@@H]7O[C@H](CO)[C@H](O)[C@H](O[C@@H]8O[C@H](CO)[C@@H](O)[C@H](O)[C@H]8O)[C@H]7O)[C@H](O)[C@H]6O)[C@H](O)C[C@]5(C)[C@H]4CC[C@]3(C)[C@H]1[C@@H]2C` (some centres undefined) [DIGITONIN] as the compound, how does the Activity read?
Answer: The Activity was 135000.

From ChEMBL document CHEMBL1141838, “Application of lipase-catalyzed regioselective esterification in the preparation of digitonin derivatives” (J Nat Prod, 1999)
